Data taken from patent publication US20170173002A1, “Compositions and Methods for Treating an Infection” (CMPD LICENSING, LLC, priority 2015, published 2017).

Experiments:
Bacteroides fragilis = test: Expected efficacy of antibiotic agents; conditions: expected efficacy against Bacteroides fragilis
Clostridium difficile = test: Expected efficacy of antibiotic agents; conditions: expected efficacy against Clostridium difficile
Clostridium perfringens = conditions: expected efficacy against Clostridium perfringens
Chlamydia pneumoniae = test: Expected efficacy of antibiotic agents; conditions: expected efficacy against Chlamydia pneumoniae
Chlamydia psittaci = conditions: expected efficacy against Chlamydia psittaci
Chlamydia trachomatis = test: Expected efficacy of antibiotic agents; conditions: expected efficacy against Chlamydia trachomatis
Mycoplasma pneumoniae = test: Expected efficacy of antibiotic agents; conditions: expected efficacy against Mycoplasma pneumoniae
Acinetobacter baumannii = test: Expected efficacy of antibiotic agents; conditions: expected efficacy against Acinetobacter baumannii
[1] = test system: Acinetobacter calcoaceticus; test: Expected efficacy of antibiotic agents; conditions: expected efficacy against Acinetobacter calcoaceticus
Acinetobacter lwoffii = test: Expected efficacy of antibiotic agents; conditions: expected efficacy against Acinetobacter lwoffii
Bordetella pertussis = test: Expected efficacy of antibiotic agents; conditions: expected efficacy against Bordetella pertussis
Campylobacter jejuni = test: Expected efficacy of antibiotic agents; conditions: expected efficacy against Campylobacter jejuni
Citrobacter diversus = test: Expected efficacy of antibiotic agents; conditions: expected efficacy against Citrobacter diversus
Citrobacter freundii = test: Expected efficacy of antibiotic agents; conditions: expected efficacy against Citrobacter freundii
Enterobacter aerogenes = test: Expected efficacy of antibiotic agents; conditions: expected efficacy against Enterobacter aerogenes
Enterobacter cloacae = test: Expected efficacy of antibiotic agents; conditions: expected efficacy against Enterobacter cloacae
Enterobacter sakazakii = test: Expected efficacy of antibiotic agents; conditions: expected efficacy against Enterobacter sakazakii
Escherichia coli = test: Expected efficacy of antibiotic agents; conditions: expected efficacy against Escherichia coli
Haemophilus ducreyi = test: Expected efficacy of antibiotic agents; conditions: expected efficacy against Haemophilus ducreyi
Haemophilus influenzae = test: Expected efficacy of antibiotic agents; conditions: expected efficacy against Haemophilus influenzae
[2] = test system: Klebsiella (Calymmatobacterium) granulomatis; test: Expected efficacy of antibiotic agents; conditions: expected efficacy against Klebsiella (Calymmatobacterium) granulomatis
Klebsiella oxytoca = test: Expected efficacy of antibiotic agents; conditions: expected efficacy against Klebsiella oxytoca
Klebsiella pneumoniae = test: Expected efficacy of antibiotic agents; conditions: expected efficacy against Klebsiella pneumoniae
Legionella pneumophila = conditions: expected efficacy against Legionella pneumophila
Moraxella catarrhalis = test: Expected efficacy of antibiotic agents; conditions: expected efficacy against Moraxella catarrhalis
Neisseria gonorrhoeae = test: Expected efficacy of antibiotic agents; conditions: expected efficacy against Neisseria gonorrhoeae
Neisseria meningitidis = test: Expected efficacy of antibiotic agents; conditions: expected efficacy against Neisseria meningitidis
Proteus mirabilis = test: Expected efficacy of antibiotic agents; conditions: expected efficacy against Proteus mirabilis
Proteus vulgaris = test: Expected efficacy of antibiotic agents; conditions: expected efficacy against Proteus vulgaris
Pseudomonas aeruginosa = test: Expected efficacy of antibiotic agents; conditions: expected efficacy against Pseudomonas aeruginosa
Pseudomonas fluorescens = test: Expected efficacy of antibiotic agents; conditions: expected efficacy against Pseudomonas fluorescens
Serratia marcescens = test: Expected efficacy of antibiotic agents; conditions: expected efficacy against Serratia marcescens
Shigella boydii = test: Expected efficacy of antibiotic agents; conditions: expected efficacy against Shigella boydii
Shigella dysenteriae = test: Expected efficacy of antibiotic agents; conditions: expected efficacy against Shigella dysenteriae
Shigella flexneri = test: Expected efficacy of antibiotic agents; conditions: expected efficacy against Shigella flexneri
Shigella sonnei = test: Expected efficacy of antibiotic agents; conditions: expected efficacy against Shigella sonnei
Vibrio cholerae = test: Expected efficacy of antibiotic agents; conditions: expected efficacy against Vibrio cholerae
Yersinia pestis = conditions: expected efficacy against Yersinia pestis
Corynebacterium jeikeium = test: Expected efficacy of antibiotic agents; conditions: expected efficacy against Corynebacterium jeikeium
[3] = test system: Corynebacterium urealyticum; test: Expected efficacy of antibiotic agents; conditions: expected efficacy against Corynebacterium urealyticum
Diphtheroids = test: Expected efficacy of antibiotic agents; conditions: expected efficacy against Diphtheroids
Enterococcus faecalis = test: Expected efficacy of antibiotic agents; conditions: expected efficacy against Enterococcus faecalis
Enterococcus faecium = test: Expected efficacy of antibiotic agents; conditions: expected efficacy against Enterococcus faecium
[4] = test system: Methicillin resistant staph aureus (MRSA); test: Expected efficacy of antibiotic agents; conditions: expected efficacy against Methicillin resistant staph aureus (MRSA)
Peptostreptococcus = test: Expected efficacy of antibiotic agents; conditions: expected efficacy against Peptostreptococcus
[5] = test system: Staphylococcus aureus (MSSA); test: Expected efficacy of antibiotic agents; conditions: expected efficacy against Staphylococcus aureus (MSSA)
[6] = test system: Staphylococcus epidermidis; test: Expected efficacy of antibiotic agents; conditions: expected efficacy against Staphylococcus epidermidis
Streptococcus agalactiae = test: Expected efficacy of antibiotic agents; conditions: expected efficacy against Streptococcus agalactiae
Streptococcus pneumoniae = test: Expected efficacy of antibiotic agents; conditions: expected efficacy against Streptococcus pneumoniae
Streptococcus pyogenes = test: Expected efficacy of antibiotic agents; conditions: expected efficacy against Streptococcus pyogenes
[7] = test system: Viridans group streptococci; test: Expected efficacy of antibiotic agents; conditions: expected efficacy against Viridans group streptococci
Bartonella bacilliformis = test: Expected efficacy of antibiotic agents; conditions: expected efficacy against Bartonella bacilliformis
Francisella tularensis = conditions: expected efficacy against Francisella tularensis
[8] = test system: Haemophilus parainfluenzae; test: Expected efficacy of antibiotic agents; conditions: expected efficacy against Haemophilus parainfluenzae
Morganella morganii = test: Expected efficacy of antibiotic agents; conditions: expected efficacy against Morganella morganii
Providencia rettgeri = test: Expected efficacy of antibiotic agents; conditions: expected efficacy against Providencia rettgeri
Providencia stuartii = test: Expected efficacy of antibiotic agents; conditions: expected efficacy against Providencia stuartii
Rickettsiae = conditions: expected efficacy against Rickettsiae
Salmonella typhi = test: Expected efficacy of antibiotic agents; conditions: expected efficacy against Salmonella typhi

Compound: NC[C@H]1O[C@H](O[C@H]2[C@H](O)[C@@H](O[C@H]3O[C@H](CO)[C@@H](O)[C@H](N)[C@H]3O)[C@H](N)C[C@@H]2N)[C@H](N)C[C@@H]1O [Tobramycin, tobramycin]
- Efficacy (Bacteroides fragilis): no
- Efficacy (Clostridium difficile): no
- Efficacy (Clostridium perfringens): no
- Efficacy (Chlamydia pneumoniae): no
- Efficacy (Chlamydia psittaci): no
- Efficacy (Chlamydia trachomatis): no
- Efficacy (Mycoplasma pneumoniae): no
- Efficacy (Acinetobacter baumannii): no
- Efficacy [1]: no
- Efficacy (Acinetobacter lwoffii): no
- Efficacy (Bordetella pertussis): no
- Efficacy (Campylobacter jejuni): yes
- Efficacy (Citrobacter diversus): yes
- Efficacy (Citrobacter freundii): yes
- Efficacy (Enterobacter aerogenes): yes
- Efficacy (Enterobacter cloacae): yes
- Efficacy (Enterobacter sakazakii): yes
- Efficacy (Escherichia coli): yes
- Efficacy (Haemophilus ducreyi): yes
- Efficacy (Haemophilus influenzae): yes
- Efficacy [2]: yes
- Efficacy (Klebsiella oxytoca): yes
- Efficacy (Klebsiella pneumoniae): yes
- Efficacy (Legionella pneumophila): no
- Efficacy (Moraxella catarrhalis): yes
- Efficacy (Neisseria gonorrhoeae): no
- Efficacy (Neisseria meningitidis): no
- Efficacy (Proteus mirabilis): yes
- Efficacy (Proteus vulgaris): yes
- Efficacy (Pseudomonas aeruginosa): yes
- Efficacy (Pseudomonas fluorescens): yes
- Efficacy (Serratia marcescens): yes
- Efficacy (Shigella boydii): yes
- Efficacy (Shigella dysenteriae): yes
- Efficacy (Shigella flexneri): yes
- Efficacy (Shigella sonnei): yes
- Efficacy (Vibrio cholerae): no
- Efficacy (Yersinia pestis): yes
- Efficacy (Corynebacterium jeikeium): no
- Efficacy [3]: no
- Efficacy (Diphtheroids): no
- Efficacy (Enterococcus faecalis): no
- Efficacy (Enterococcus faecium): no
- Efficacy [4]: no
- Efficacy (Peptostreptococcus): no
- Efficacy [5]: no
- Efficacy [6]: no
- Efficacy (Streptococcus agalactiae): no
- Efficacy (Streptococcus pneumoniae): no
- Efficacy (Streptococcus pyogenes): no
- Efficacy [7]: no

Compound: O=C(O)c1cn(C2CC2)c2cc(N3CCNCC3)c(F)cc2c1=O [Ciprofloxacin, ciprofloxacin]
- Efficacy (Bacteroides fragilis): no
- Efficacy (Chlamydia pneumoniae): yes
- Efficacy (Bartonella bacilliformis): yes
- Efficacy (Campylobacter jejuni): yes
- Efficacy (Citrobacter diversus): yes
- Efficacy (Citrobacter freundii): yes
- Efficacy (Enterobacter aerogenes): yes
- Efficacy (Escherichia coli): yes
- Efficacy (Francisella tularensis): yes
- Efficacy (Haemophilus influenzae): yes
- Efficacy [8]: yes
- Efficacy (Klebsiella oxytoca): yes
- Efficacy (Klebsiella pneumoniae): yes
- Efficacy (Legionella pneumophila): yes
- Efficacy (Moraxella catarrhalis): yes
- Efficacy (Morganella morganii): yes
- Efficacy (Neisseria gonorrhoeae): yes
- Efficacy (Neisseria meningitidis): yes
- Efficacy (Proteus mirabilis): yes
- Efficacy (Proteus vulgaris): yes
- Efficacy (Providencia rettgeri): yes
- Efficacy (Providencia stuartii): yes
- Efficacy (Pseudomonas aeruginosa): yes
- Efficacy (Pseudomonas fluorescens): yes
- Efficacy (Rickettsiae): yes
- Efficacy (Salmonella typhi): yes
- Efficacy (Serratia marcescens): yes
- Efficacy (Shigella boydii): yes
- Efficacy (Shigella dysenteriae): yes
- Efficacy (Shigella flexneri): yes
- Efficacy (Shigella sonnei): yes
- Efficacy (Vibrio cholerae): yes
- Efficacy (Yersinia pestis): yes
- Efficacy (Corynebacterium jeikeium): no
- Efficacy (Enterococcus faecium): no
- Efficacy [4]: no
- Efficacy [6]: yes
